The values that follow come from patent publication US4559339A, “Indol-3-yl-quinazolino-1,4-benzodiazepin-5,13-diones” (Merck & Co., Inc., priority 1985, dated 1985).

The target of assay [1] is T1, CCK receptor (pancreas) (Rattus norvegicus, UniProt P30551).
T1 construct: The whole pancreas of a male Sprague-Dawley rat; from tissue; host or cells: whole pancreas of male Sprague-Dawley rat, washed membrane homogenate
T1 sequence (P30551 1-444): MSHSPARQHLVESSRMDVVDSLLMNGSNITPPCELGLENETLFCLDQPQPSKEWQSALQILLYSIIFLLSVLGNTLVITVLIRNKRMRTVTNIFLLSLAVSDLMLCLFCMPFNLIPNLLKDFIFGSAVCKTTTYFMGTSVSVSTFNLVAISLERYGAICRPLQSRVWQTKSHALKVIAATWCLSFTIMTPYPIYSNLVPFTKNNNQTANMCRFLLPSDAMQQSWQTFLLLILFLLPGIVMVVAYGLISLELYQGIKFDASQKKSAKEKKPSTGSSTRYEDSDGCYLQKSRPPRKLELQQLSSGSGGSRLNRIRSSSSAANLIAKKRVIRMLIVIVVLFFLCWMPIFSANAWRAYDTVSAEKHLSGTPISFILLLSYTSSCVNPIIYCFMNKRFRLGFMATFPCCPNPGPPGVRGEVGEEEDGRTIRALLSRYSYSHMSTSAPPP
Nature of the assay: CCK receptor binding (pancreas) method. Details: species or system Sprague-Dawley rat. The settings on record: rat pancreas membranes, 37° C., 30 minutes; read-out: I-CCK-8 Pancreas IC50. As for the experimental part: (§1) Screening of the novel compounds according to the present invention to determine biological activity and obtain an IC50 value for them, in order to identify significant CCK-antagonism, may be accomplished using an ^125 I-CCK receptor binding assay and in vitro isolated tissue preparations. These tests involve the following:
CCK receptor binding (pancreas) method
[…] (J. Biol. Chem., 254, 9349-9351, 1979). Receptor binding is performed according to Innis and Snyder (Proc. Natl. Acad. Sci., 77, 6917-6921, 1980), with the minor modification of adding the additional protease inhibitors, phenyl-methane sulfonyl fluoride and o-phenanthroline, which have no effect on the ^125 I-CCK receptor binding assay.
The whole pancreas of a male Sprague-Dawley rat (200-350 g), which has been sacrificed by decapitation, is dissected free of fat tissue and homogenized in 20 volumes of ice-cold 50 mM Tris HCl (pH 7.7 at 25° C.) with a Brinkman Polytron PT-10. The homogenates are centrifuged at 48,000 g for 10 minutes, then the resulting pellets are resuspended in Tris Buffer, centrifuged as above, and resuspended in 200 volumes of binding assay buffer (50 mM Tris HCl, pH 7.7 at 25° C., 5 mM dithiothreitol, 0.1 mM bacitracin, 1.2 mM phenylmethane sulfonyl fluoride and 0.5 mM o-phenanthroline).
For the binding assay, 25 μl of buffer (for total binding), or unlabeled CCK-8 sulfate sufficient to give a final concentration of 1 μM of CCK-8 (for nonspecific binding), or the compounds of the formula of the compounds according to the instant invention ([…]), are added to 450 μl of the membrane suspensions in microfuge tubes. All assays are run in duplicate or triplicate, and the reaction mixtures are incubated at 37° C. for 30 minutes and centrifuged in a Beckman Microfuge (4 minutes) immediately after adding 1 ml of ice-cold incubation buffer. The supernatant is aspirated and discarded, and the pellets are counted with a Beckman Gamma 5000.

The next assay addresses T2, CCK receptor (brain) (Cavia porcellus, UniProt H0VZC5).
T2 construct: The cerebral cortex is dissected and used as a receptor source; from tissue; host or cells: cerebral cortex of male Hartley guinea pig, membrane homogenate
T2 sequence (H0VZC5 1-426): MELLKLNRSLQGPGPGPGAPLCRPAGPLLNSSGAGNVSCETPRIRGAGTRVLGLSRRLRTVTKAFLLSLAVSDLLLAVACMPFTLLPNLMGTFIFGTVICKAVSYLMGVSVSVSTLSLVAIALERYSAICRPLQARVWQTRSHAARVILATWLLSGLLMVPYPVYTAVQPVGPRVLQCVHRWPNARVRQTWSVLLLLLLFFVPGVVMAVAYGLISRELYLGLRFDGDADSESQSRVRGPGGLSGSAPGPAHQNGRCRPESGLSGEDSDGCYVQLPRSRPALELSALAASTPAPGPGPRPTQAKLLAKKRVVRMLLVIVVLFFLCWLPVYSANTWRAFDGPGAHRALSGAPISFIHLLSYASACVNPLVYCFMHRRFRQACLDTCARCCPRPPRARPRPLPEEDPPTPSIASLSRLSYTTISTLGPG
The assay is described as follows: CCK receptor binding (brain) method. Details: species or system Hartley guinea pig. The settings on record: guinea pig cerebral cortex, 25° C., 2 hours; read-out: ^125 I-CCK Brain IC50. As for the experimental part: as §1
CCK receptor binding (brain) method
CCK-33 is radiolabeled and the binding is performed according to the description for the pancreas method, with modifications according to Saito et al., J. Neurochem., 37, 483-490, 1981.
Male Hartley guinea pigs (300-500 g) are sacrificed by decapitation, and the brains are removed and placed in ice-cold 50 mM Tris HCl (Trizma-7.4) [pH 7.4 at 25° C.]. The cerebral cortex is dissected and used as a receptor source and each gram of fresh guinea pig brain tissue is homogenized in 10 ml of Tris/Trizma buffer with a Brinkman polytron PT-10. The homogenates are centrifuged at 42,000 g for 15 minutes, then the resulting pellets are resuspended in 80 volumes of binding assay buffer (10 mM N-2-hydroxy-ethylpiperazine-N'-2-ethanesulfonic acid (HEPES), 5 mM MgCl2, 1 mM ethylene glycol-bis-(β-amino-ethyl-ether-N,N'-tetraacetic acid (EGTA), 0.4% BSA and 0.25 mg/ml bacitracin, pH 6.5).
The remainder of the binding assay method is as described for the pancreas method, except that the reaction mixtures are incubated at 25° C. for 2 hours before centrifugation.

Assay [2] concerns the target T1, CCK receptor (pancreas). The note with it: prior compound, U.S. Pat. No. 4,530,790; cited from earlier work.
Assay [3] has as its system cholecystokinins in the gut. The note with it: prior compound; cited from earlier work.
In another assay the test system is CCK receptor. The settings on record: structure-function studies; cited from earlier work.

The structures appear in SMILES notation. Read-outs that look alike come from different tables or passages of the source. Bounds are passed on as bounds.

As to `CC(C)C[C@@H](NC(=O)OC(C)(C)C)C(=O)N1CC(C[C@@H]2NC(=O)c3ccccc3-n3c2nc2ccccc2c3=O)c2ccccc21` (single isomer, unassigned; isomer 1) [Example 6], the values for the IC50 at CCK receptor (pancreas) [1] and on CCK receptor (brain) were 16.5 µM and above 100 µM, respectively.

For the compound `CC(C)C[C@@H](NC(=O)OC(C)(C)C)C(=O)N1CC(C[C@@H]2NC(=O)c3ccccc3N3C(=O)c4ccccc4NC23)c2ccccc21` (single isomer, unassigned; isomer 1) [Example 8], the IC50 turned out to be 49 µM on CCK receptor (pancreas) [1] and 15 µM at CCK receptor (brain).

For `CC(C)C[C@@H](NC(=O)OC(C)(C)C)C(=O)N1CC(C[C@@H]2NC(=O)c3ccccc3-n3c2nc2ccccc2c3=O)c2ccccc21` (single isomer, unassigned; isomer 2) [Example 7], the IC50 on CCK receptor (pancreas) [1] and at CCK receptor (brain) was above 100 µM each time.

As for `CC(C)C[C@@H](NC(=O)OC(C)(C)C)C(=O)N1CC(C[C@@H]2NC(=O)c3ccccc3N3C(=O)c4ccccc4NC23)c2ccccc21` (single isomer, unassigned; isomer 2) [Example 9], the results for the half-maximal inhibitory concentration (IC50) at CCK receptor (pancreas) [1] and at CCK receptor (brain) were 34 µM and 100 µM, respectively.

Turning to `O=C1N[C@@H](Cc2c[nH]c3ccccc23)c2nc3ccccc3c(=O)n2-c2ccccc21` [7β-[(1H-indol-3-yl)methyl]quinazolino(3,2-A) (1,4)benzodiazepin-5,13(6H,7H)dione], the IC50 on CCK receptor (pancreas) [2] is 26 µM. In assay [3], the “selectivity in inhibiting the function of cholecystokinins” value is reported as “selective in inhibiting the function of cholecystokinins in the gut”.

As to `O=C1N[C@@H](Cc2c[nH]c3ccccc23)C2Nc3ccccc3C(=O)N2c2ccccc21` (some centres unmarked) [Example 1, 7,7A-dihydro-7-(1H-indol-3-yl)methylquinazolino(3,2-B)-1,4-benzodiazepin-5,13-(6H,9H)-dione monohydrate], the IC50 on CCK receptor (pancreas) [1] was 12 µM; on CCK receptor (brain), above 100 µM.

`O=C1N[C@@H](CC2CNc3ccccc32)c2nc3ccccc3c(=O)n2-c2ccccc21` (some centres unmarked) [Example 2, 7-[(2,3-dihydro-1H-indol-3-yl)methyl]-quinazolino(3,2-A)-1,4-benzodiazepin-5,13-(6H,7H)-dione hemihydrate]: the figures for the IC50 on CCK receptor (pancreas) [1] and at CCK receptor (brain) were 27 µM and above 100 µM, respectively.

As for `CC(C)C[C@H](NC(=O)OC(C)(C)C)C(=O)n1cc(C[C@@H]2NC(=O)c3ccccc3-n3c2nc2ccccc2c3=O)c2ccccc21` [Example 3, 7-[(1-[2(S)-((1,1-dimethylethoxy)-carbonyl)amino-4-methylpentanoyl]-1H-indol-3-yl)methyl]quinazolino(3,2-A)-1,4-benzodiazepin-5,13-(6H,7H)-dione sesquihydrate], the IC50 on CCK receptor (pancreas) [1] and on CCK receptor (brain) was above 100 µM in each case.

Regarding `CC(C)C[C@H](NC(=O)OC(C)(C)C)C(=O)N1CC(C[C@@H]2NC(=O)c3ccccc3-n3c2nc2ccccc2c3=O)c2ccccc21` (stereo partly drawn) [Example 4, 7-[(1-[2(S)-((1,1-dimethylethoxy)carbonyl)amino-4-methylpentanoyl]-2,3-dihydro-1H-indol-3-yl)methyl]quinazolino(3,2-A)-1,4-benzodiazepin-5,13-(6H,7H)-dione hemihydrate], the IC50 on CCK receptor (pancreas) [1] is 3.4 µM; at CCK receptor (brain), above 100 µM.

With `CC(C)C[C@H](NC(=O)OC(C)(C)C)C(=O)N1CC(C[C@@H]2NC(=O)c3ccccc3N3C(=O)c4ccccc4NC23)c2ccccc21` (stereo partly drawn) [Example 5, 7-[(1-[2(S)-((1,1-dimethylethoxy)carbonyl)amino-4-methylpentanoyl]-2,3-dihydro-1H-indol-3-yl)methyl]quinazolino(3,2-A)-1,4-benzodiazepin-5,13-(5H,7H)-dione hydrate], the IC50 on CCK receptor (pancreas) [1] is 19.2 µM; at CCK receptor (brain), above 100 µM.

For `CC(C)C[C@H](NC(=O)OCc1ccccc1)C(=O)n1cc(C[C@@H]2NC(=O)c3ccccc3-n3c2nc2ccccc2c3=O)c2ccccc21` [Example 10, 7-[(1-[2(S)-phenylmethoxycarbonylamino-4-methylpentanoyl]-1H-indol-3-yl)methyl]quinazolino-(3,2-B)-1,4-benzodiazepin-5,13-(6H,7H)-dione], the IC50 at CCK receptor (pancreas) [1] and at CCK receptor (brain) was above 100 µM each time.

With `CCCC(=O)Nc1nc2c(ncn2[C@@H]2O[C@@H]3COP(=O)(O)O[C@H]3[C@H]2OC(=O)CCC)c(=O)[nH]1` [dibutyryl cyclic GMP], in the assay with CCK receptor, the “CCK-receptor antagonist potency within derivatives of cyclic nucleotides” value is recorded as “most potent”.

As usually defined, the IC50 is the concentration at which inhibition is half-maximal.
